From patent US12234240B2, “Substituted imidazo[5,1-d][1,2,3,5]tetrazines for the treatment of cancer” (The Board of Trustees of the University of Illinois, priority 2018, dated 2025)
Like-named read-outs stand apart in the source and are kept apart here.

How the values were obtained:
[1] = test system: U87 cells; test: Cell viability, Alamar Blue, 7-day incubation, U87; type: cell-based; settings: Homo sapiens, U-87 MG, 168 h, MGMT −, error SEM
Protocol: (§1) Anticancer activity of C8 substituted imidazotetrazines. With a suite of imidazotetrazines in hand, each compound was evaluated against a panel of human GBM cell lines (Table 1a, Table 1b).

[2] = test system: D54 cells; test: Cell viability, Alamar Blue, 7-day incubation, D54; type: cell-based; settings: Homo sapiens, D54, 168 h, MGMT −, error SEM
Protocol: as §1

[3] = test system: T98G cells; test: Cell viability, Alamar Blue, 7-day incubation, T98G; type: cell-based; settings: Homo sapiens, 168 h, MGMT +, error SEM
Protocol: as §1

[4] = test system: Br23c GBM oncosphere cell line; test: Cell viability, Alamar Blue, 7-day, Br23c GBM oncosphere line; type: cell-based; settings: Homo sapiens, 168 h, error SEM, read-out: 7-day IC50 MGMT − Br23C
[5] = Mouse liver microsome stability assay; type: in vitro ADME; settings: for metabolic stability in words: mouse liver microsomes, 2 hours
Protocol: (§2) Liver microsome stability.
(§3) Mouse Liver Microsome Stability Assay. A mixture of PBS (pH 7.4), NADPH regenerating system solution A (Corning Life Sciences), and NADPH regenerating system solution B (Corning Life Sciences) was incubated at 37° C. in a shaking incubator for 5 min. Next, compound was added in DMSO (final concentration 50 μM, 0.5% DMSO) before ice-cold mouse liver microsomes (Thermo Fisher, male CD-1 mice, pooled) were added (final protein concentration of 1 mg/mL). An aliquot was immediately removed, quenched with an equal volume of 100 μM internal standard and 0.5% hydrochloric acid in ice-cold acetonitrile, and centrifuged at 13,000 rcf for 3 min. The supernatant was diluted 1:5 in ddH2O and analyzed by LC-MS. The reactions were incubated at 37° C. in a shaking incubator for 2 h. A second aliquot was removed, quenched and diluted as before and analyzed by LC-MS. The ratio of the areas of analyte:internal standard at 2 hours was compared to the ratio at t0 to determine the percentage of compound remaining. Analysis was performed on an Agilent 6230 LC/MS TOF system with a 1.8 μm, 2.1×50 mm Agilent ZORBAX Eclipse Plus C18 column.

[6] = test system: GBM Br23c oncospheres intracranially implanted; test: Intracranial mouse model of GBM (Br23c oncospheres); type: in vivo; settings: for increase in median survival over TMZ: equimolar to 15 mg/kg TMZ, oral gavage once-per-day, 5×/week, 7 weeks; for effect on survival in words: oral gavage, 15 mg/kg TMZ or equimolar dose
From the text: FIG. 5. Evaluation of imidazotetrazines in intracranial mouse models of GBM. GBM Br23c oncospheres were intracranially implanted into female athymic nude mice. Treatment was started 5 days post implantation. […] Compounds were formulated in 10% PEG in PBS immediately prior to each treatment. Number of mice per treatment cohort≥5. Survival curves were compared using log-rank test.
in vivo Efficacy Models. Human GBM Br23c stem-like neurosphere cells were intracranially implanted in female athymic nude mice (150,000 cells/mouse). […] Mice were observed daily for any signs of deterioration, neurotoxicity, or movement disorders. They were inspected for signs of pain and distress, as in accordance with the Johns Hopkins Animal Care and Use Guidelines.

[7] = test system: T98G cells; test: cells; type: cell-based; settings: for IC50: Homo sapiens, 7-day incubation; for Fold Change: between IC50 (+/−) O6BG
Protocol: FIG. 4. Imidazotetrazines were added to T98G cells with or without 3 h pre-treatment of O6BG (100 μM). IC50 values after 7-day incubation and fold changes between (+/−) O6BG treatments are reported. […] Error is SEM, n≥3. Statistical significance was determined by using a two-sample Student's t-test (two-tailed test, assuming equal variance).

[8] = physchem; settings: buffered saline (PBS), pH 7.4
Protocol: (§4) Hydrolytic stability of C8 substituted imidazotetrazines. […] A HPLC assay was developed to quantify the fraction of intact prodrug remaining in solution after 2 hours at pH 7.4, 37° C.

[9] = Assessment of hematological toxicity in vivo; settings: mice; for Cohort weight 7 days Post: 7 days after single IV dose of 125 mg/kg; for Cohort weight 7 days Post / Cohort weight Pre-treatment: error SEM, 4 mice; for Cohort weight Pre-treatment: prior to single IV dose of 125 mg/kg; for myelosuppression / white blood cell effect: single IV dose 125 mg/kg, complete blood count after 7 days
Protocol: Assessment of hematological toxicity. […] Both lymphocyte (FIG. 3b) and neutrophil (FIG. 8a) concentrations were decreased in TMZ-treated mice. […] Total WBC, lymphocyte, and neutrophil counts for mice treated with these compounds were equivalent to those of control mice.
Assessment of Hematological Toxicity. Male CD-1 IGS mice (n=4 mice/group) were administered a single dose of 125 mg/kg compound intravenously. Imidazotetrazines were formulated with SBEβCD in sterile water immediately prior to injection. Seven days post-treatment, mice were humanely sacrificed and whole blood was collected for assessment of total white blood cells, lymphocytes, neutrophils, platelets, and red blood cells.

[10] = Hydrolytic stability in buffered saline (HPLC assay); settings: saline at pH 7.0, 7.4, and 8.0, 2 h at 37° C.
Protocol: as §4

[11] = Stability in the absence of microsomes (microsomes replaced with PBS); type: physicochemical; settings: liver microsomes replaced with PBS, percentage remaining relative to t0
Protocol: as §2, §3

[12] = test system: genomic DNA of U87 cells; test: O6-methyldeoxyguanosine quantitation in U87 cells; type: cell-based, human; settings: 100 or 1000 μM, 8 hours
Protocol: Novel imidazotetrazines induce alkylation-mediated cancer cell death. […] After 8 hours of incubation with compound, the genomic DNA was isolated, quantified, and hydrolyzed to its constituent deoxyribonucleosides, which were quantitated via LC-MS/MS analysis. […] Further confirmation that the novel compounds remain DNA alkylators was obtained upon pre-treatment with MGMT inhibitor O^6-benzylguanine (O6BG). O6BG is a pseudosubstrate for MGMT that quenches cellular stores of the enzyme, leading to the persistence of O^6-methylguanine DNA adducts.
O^6-Methyldeoxyguanosine Quantitation. U87 cells were plated at 1×10^6 c/w in a 6-well plate before they were treated with compound at the indicated concentration (1% final concentration DMSO). After 8 h incubation, the cells were harvested and pelleted. Genomic DNA was extracted using the DNeasy Blood & Tissue Kit (Qiagen, ID: 69504). DNA was then precipitated using the following procedure: 1/10 v/v 3M sodium acetate (pH 5.2) and 2.5× v/v ethanol was added to each sample which was then kept at −80° C. for 1 h. […] The concentration of DNA in each sample was quantified measuring absorbance on a NanoDrop 2000 UV-Vis Spectrophotometer (Thermo Fisher). […] Hydrolyzed samples were then submitted for LC-MS/MS quantitation. Samples were analyzed with a 5500 QTRAP LC/MS/MS system (AB Sciex) with a 1200 series HPLC system (Agilent).

[13] = test system: human GBM cell lines; test: Viability in panel of human GBM cell lines; type: cell-based
Protocol: as §1

[14] = cited from earlier work
[15] = test system: glioblastoma; settings: cited from earlier work
[16] = Table 1a, 7 days, n ≥ 3, read-out: IC50 U87
[17] = Table 1a, 7 days, read-out: IC50 D54
[18] = Table 1a, 7 days, read-out: IC50 T98G
[19] = 3 h pre-treatment with O6BG (100 μM)

Row | Structure (SMILES) | IC50 [1, 16] [µM] | IC50 [2, 17] [µM] | IC50 [3, 18] [µM] | IC50 [4] [µM] | metabolic stability in words [5] | increase in median survival over TMZ [6] [%] | IC50 [7, 19] [µM] | IC50 ([7]; 168 h, without O6BG) [µM] | Fold Change [7] | effect on survival in words [6] | Cohort weight 7 days Post [9] [g] | Cohort weight Pre-treatment [9] [g] | myelosuppression / white blood cell effect [9] | further results
1 | CNC(=O)c1ncn2c(=O)n(C)nnc12 [Compound 4, N,3-dimethyl-4-oxo-3,4-dihydroimidazo[5,1-d][1,2,3,5]tetrazine-8-carboxamide] | 49 ± 7 | 11 ± 1 | 580 ± 20 | 6 ± 1 | some susceptibility to the effects of the microsomes | 24 |  |  |  |  |  |  |  | 
2 | CN(C)C(=O)c1ncn2c(=O)n(C)nnc12 [Compound 5, N,N,3-trimethyl-4-oxo-3,4-dihydroimidazo[5,1-d][1,2,3,5]tetrazine-8-carboxamide] | 40 ± 20 | 12 ± 5 | 250 ± 60 | 6 ± 1 | some susceptibility to the effects of the microsomes | 46 | 25 ± 9 | 250 ± 60 | 10 |  |  |  |  | 
3 | Cc1ncn2c(=O)n(C)nnc12 [Compound 14, 3,8-dimethylimidazo[5,1-d][1,2,3,5]tetrazin-4(3H)-one] | 3 ± 1 | 6 ± 3 | 6 ± 1 |  |  |  |  |  |  | no effect |  |  |  | half-life [8]: 40 h
4 | CC(=O)c1ncn2c(=O)n(C)nnc12 [Compound 17, 8-acetyl-3-methylimidazo[5,1-d][1,2,3,5]tetrazin-4(3H)-one] |  | 18 ± 1 |  | 5.2 ± 0.3 | generally stable to oxidative metabolism |  | 32 ± 4 | 240 ± 20 | 8 |  | 31 ± 1 | 30 ± 1 | did not produce myelosuppression | extension of median survival past TMZ-treated mice ([6]; 14.9 mg/kg oral once-per-day for 5 total doses): more than 50 days; pH dependence of hydrolysis [10]: pH-dependent
5 | Cn1nnc2c(C(N)=O)ncn2c1=O [TMZ, temozolomide, reference compound] | 51 ± 8 | 12 ± 1 | 660 ± 10 | 5.2 ± 0.2 | insensitive to metabolic perturbation |  |  | 660 ± 10 |  | significantly increased median survival compared with vehicle | 32 ± 1 | 31 ± 1 | white blood cell (WBC) depletion | IC50 ([1]; Table 1b, read-out: 7-day IC50 U87): 51 ± 8 µM; IC50 ([2]; Table 1b, read-out: 7-day IC50 D54): 12 ± 1 µM; IC50 ([3]; Table 1b, read-out: 7-day IC50 T98G): 660 ± 10 µM; Stability (2 h, Microsomes) ([5]; 2 h, percentage remaining relative to t0, error SEM, n ≥ 2): 87 ± 6%; Stability (2 h, No Microsomes) [11]: 86 ± 4%; enhancement in cytotoxicity after O6BG pre-incubation ([7]; O6BG 100 μM): eight-fold; concentration of O6-methylated deoxyguanosine [12]: Dose dependent increases; IC50 ([13]; GBM cell lines with negligible MGMT expression, read-out: IC50 in cell lines with negligible MGMT expression): ≤ 50 µM; IC50 ([13]; GBM cell lines with significant MGMT expression, read-out: IC50 in cell lines with significant MGMT expression): > 300 µM; cerebral spinal fluid concentrations as percent of those in the plasma ([14]; humans): 20%; half-life ([14]; in vivo and in aqueous solutions in vitro): ~2 h; myelotoxicity incidence in treated patients ([15]; TMZ-treated patients): ~20%; median survival ([15]; patients whose tumors do not express MGMT): approximately two
